Laboratory results: PubChem BioAssay AID1259407 (Chemical Carcinogenesis Research Information System (CCRIS), 2018)
The source made the active and inactive calls. No rule for the calls is given here.

Tested on: CCRIS mutagenicity, Ames/micronucleus/aberration tests
Experiment: CCRIS mutagenicity studies
[1] = Test System: AMES SALMONELLA TYPHIMURIUM, Strain/Indicator: TA100, Metabolic Activation: NONE, Method: STANDARD PLATE
[2] = Test System: AMES SALMONELLA TYPHIMURIUM, Strain/Indicator: TA98, Metabolic Activation: NONE, Method: PREINCUBATION
[3] = Test System: AMES SALMONELLA TYPHIMURIUM, Strain/Indicator: TA100, Metabolic Activation: NONE, Method: PREINCUBATION
[4] = Test System: AMES SALMONELLA TYPHIMURIUM, Strain/Indicator: TA1535, Metabolic Activation: NONE, Method: STANDARD PLATE

CCN(CC)CC#CCOC(=O)C(O)(c1ccccc1)C1CCCCC1 (stereo not given)
mutagenic call (Test System: AMES SALMONELLA TYPHIMURIUM, Strain/Indicator: TA98, Metabolic Activation: NONE): inactive; negative
mutagenic call (Test System: AMES SALMONELLA TYPHIMURIUM, Strain/Indicator: TA98, Metabolic Activation: S-9): inactive; negative
mutagenic call (Test System: AMES SALMONELLA TYPHIMURIUM, Strain/Indicator: TA100, Metabolic Activation: NONE): inactive; negative
mutagenic call (Test System: AMES SALMONELLA TYPHIMURIUM, Strain/Indicator: TA100, Metabolic Activation: S-9): inactive; negative
mutagenic call (Test System: AMES SALMONELLA TYPHIMURIUM, Strain/Indicator: TA1535, Metabolic Activation: NONE): inactive; negative
mutagenic call (Test System: AMES SALMONELLA TYPHIMURIUM, Strain/Indicator: TA1535, Metabolic Activation: S-9): inactive; negative
mutagenic call (Test System: AMES SALMONELLA TYPHIMURIUM, Strain/Indicator: TA1537, Metabolic Activation: NONE): inactive; negative
mutagenic call (Test System: AMES SALMONELLA TYPHIMURIUM, Strain/Indicator: TA1537, Metabolic Activation: S-9): inactive; negative
mutagenic call (Test System: AMES SALMONELLA TYPHIMURIUM, Strain/Indicator: TA1538, Metabolic Activation: NONE): inactive; negative
mutagenic call (Test System: AMES SALMONELLA TYPHIMURIUM, Strain/Indicator: TA1538, Metabolic Activation: S-9): inactive; negative
mutagenic call (Test System: E. COLI, Strain/Indicator: WP2 UVRA, Metabolic Activation: NONE): inactive; negative
mutagenic call (Test System: E. COLI, Strain/Indicator: WP2 UVRA, Metabolic Activation: S-9): inactive; negative

CN(C)CCNC(=O)c1ccc2nc3ccccc3c(N)c2c1
mutagenic call (Test System: AMES SALMONELLA TYPHIMURIUM, Strain/Indicator: TA1537, Metabolic Activation: NONE, Method: STANDARD PLATE): inactive; negative

CC(C)=CC(=O)C=C(C)C
mutagenic call (Test System: MOUSE LYMPHOMA, Strain/Indicator: L5178Y (TK+/TK-), Metabolic Activation: NONE, Method: SUSPENSION/PLATE): inactive; negative

c1ccc2c(c1)C1=c3c-2cc2cccc4ccc(c3c42)C2OC12 (stereo not given)
mutagenic call [1]: active; positive

OCC1CCCO1 (stereo not given)
mutagenic call [2]: inactive; negative
mutagenic call (Test System: AMES SALMONELLA TYPHIMURIUM, Strain/Indicator: TA98, Metabolic Activation: RAT, LIVER, S-9, AROCLOR 1254, Method: PREINCUBATION): inactive; negative
mutagenic call [3]: inactive; negative
mutagenic call (Test System: AMES SALMONELLA TYPHIMURIUM, Strain/Indicator: TA100, Metabolic Activation: RAT, LIVER, S-9, AROCLOR 1254, Method: PREINCUBATION): inactive; negative
mutagenic call (Test System: AMES SALMONELLA TYPHIMURIUM, Strain/Indicator: TA102, Metabolic Activation: NONE, Method: PREINCUBATION): inactive; negative
mutagenic call (Test System: AMES SALMONELLA TYPHIMURIUM, Strain/Indicator: TA102, Metabolic Activation: RAT, LIVER, S-9, AROCLOR 1254, Method: PREINCUBATION): inactive; negative

COC(=O)c1ccc(C)cc1
mutagenic call (Test System: AMES SALMONELLA TYPHIMURIUM, Strain/Indicator: TA97, Metabolic Activation: HAMSTER, LIVER, S-9, AROCLOR 1254 (10%), Method: PREINCUBATION): inactive; negative
mutagenic call (Test System: AMES SALMONELLA TYPHIMURIUM, Strain/Indicator: TA97, Metabolic Activation: HAMSTER, LIVER, S-9, AROCLOR 1254 (30%), Method: PREINCUBATION): inactive; negative
mutagenic call (Test System: AMES SALMONELLA TYPHIMURIUM, Strain/Indicator: TA97, Metabolic Activation: NONE, Method: PREINCUBATION): inactive; negative
mutagenic call (Test System: AMES SALMONELLA TYPHIMURIUM, Strain/Indicator: TA97, Metabolic Activation: RAT, LIVER, S-9, AROCLOR 1254 (10%), Method: PREINCUBATION): inactive; negative
mutagenic call (Test System: AMES SALMONELLA TYPHIMURIUM, Strain/Indicator: TA97, Metabolic Activation: RAT, LIVER, S-9, AROCLOR 1254 (30%), Method: PREINCUBATION): inactive; negative
mutagenic call (Test System: AMES SALMONELLA TYPHIMURIUM, Strain/Indicator: TA98, Metabolic Activation: HAMSTER, LIVER, S-9, AROCLOR 1254 (10%), Method: PREINCUBATION): inactive; negative
mutagenic call (Test System: AMES SALMONELLA TYPHIMURIUM, Strain/Indicator: TA98, Metabolic Activation: HAMSTER, LIVER, S-9, AROCLOR 1254 (30%), Method: PREINCUBATION): inactive; negative
mutagenic call [2]: inactive; negative
mutagenic call (Test System: AMES SALMONELLA TYPHIMURIUM, Strain/Indicator: TA98, Metabolic Activation: RAT, LIVER, S-9, AROCLOR 1254 (10%), Method: PREINCUBATION): inactive; negative
mutagenic call (Test System: AMES SALMONELLA TYPHIMURIUM, Strain/Indicator: TA98, Metabolic Activation: RAT, LIVER, S-9, AROCLOR 1254 (30%), Method: PREINCUBATION): inactive; negative
mutagenic call (Test System: AMES SALMONELLA TYPHIMURIUM, Strain/Indicator: TA100, Metabolic Activation: HAMSTER, LIVER, S-9, AROCLOR 1254 (10%), Method: PREINCUBATION): inactive; negative
mutagenic call (Test System: AMES SALMONELLA TYPHIMURIUM, Strain/Indicator: TA100, Metabolic Activation: HAMSTER, LIVER, S-9, AROCLOR 1254 (30%), Method: PREINCUBATION): inactive; negative
mutagenic call [3]: inactive; negative
mutagenic call (Test System: AMES SALMONELLA TYPHIMURIUM, Strain/Indicator: TA100, Metabolic Activation: RAT, LIVER, S-9, AROCLOR 1254 (10%), Method: PREINCUBATION): inactive; negative
mutagenic call (Test System: AMES SALMONELLA TYPHIMURIUM, Strain/Indicator: TA100, Metabolic Activation: RAT, LIVER, S-9, AROCLOR 1254 (30%), Method: PREINCUBATION): inactive; negative
mutagenic call (Test System: AMES SALMONELLA TYPHIMURIUM, Strain/Indicator: TA1535, Metabolic Activation: HAMSTER, LIVER, S-9, AROCLOR 1254 (10%), Method: PREINCUBATION): inactive; negative
mutagenic call (Test System: AMES SALMONELLA TYPHIMURIUM, Strain/Indicator: TA1535, Metabolic Activation: HAMSTER, LIVER, S-9, AROCLOR 1254 (30%), Method: PREINCUBATION): inactive; negative
mutagenic call (Test System: AMES SALMONELLA TYPHIMURIUM, Strain/Indicator: TA1535, Metabolic Activation: NONE, Method: PREINCUBATION): inactive; negative
mutagenic call (Test System: AMES SALMONELLA TYPHIMURIUM, Strain/Indicator: TA1535, Metabolic Activation: RAT, LIVER, S-9, AROCLOR 1254 (10%), Method: PREINCUBATION): inactive; negative
mutagenic call (Test System: AMES SALMONELLA TYPHIMURIUM, Strain/Indicator: TA1535, Metabolic Activation: RAT, LIVER, S-9, AROCLOR 1254 (30%), Method: PREINCUBATION): inactive; negative
mutagenic call (Test System: AMES SALMONELLA TYPHIMURIUM, Strain/Indicator: TA1537, Metabolic Activation: HAMSTER, LIVER, S-9, AROCLOR 1254 (30%), Method: PREINCUBATION): inactive; negative
mutagenic call (Test System: AMES SALMONELLA TYPHIMURIUM, Strain/Indicator: TA1537, Metabolic Activation: NONE, Method: PREINCUBATION): inactive; negative
mutagenic call (Test System: AMES SALMONELLA TYPHIMURIUM, Strain/Indicator: TA1537, Metabolic Activation: RAT, LIVER, S-9, AROCLOR 1254 (30%), Method: PREINCUBATION): inactive; negative

O=[N+]([O-])c1ccc(Br)cc1
mutagenic call (End Point: IN VITRO CHROMOSOMAL ABERRATIONS, Test System: HUMAN PERIPHERAL LYMPHOCYTES, Metabolic Activation: NONE): inactive; negative
mutagenic call [2]: inactive; negative
mutagenic call (Test System: AMES SALMONELLA TYPHIMURIUM, Strain/Indicator: TA98, Metabolic Activation: RAT, LIVER, S-9, KANECHLOR 500, Method: PREINCUBATION): inactive; negative
mutagenic call [3]: inactive; negative
mutagenic call (Test System: AMES SALMONELLA TYPHIMURIUM, Strain/Indicator: TA100, Metabolic Activation: RAT, LIVER, S-9, KANECHLOR 500, Method: PREINCUBATION): active; positive

CS(=O)(=O)OC[C@H](O)[C@@H](O)COS(C)(=O)=O
mutagenic call [1]: active; positive
mutagenic call [4]: active; positive
mutagenic call (Test System: AMES SALMONELLA TYPHIMURIUM, Strain/Indicator: TA7004, Metabolic Activation: NONE, Method: STANDARD PLATE): active; positive
mutagenic call (Test System: AMES SALMONELLA TYPHIMURIUM, Strain/Indicator: TA7005, Metabolic Activation: NONE, Method: STANDARD PLATE): inactive; negative
mutagenic call (Test System: CHINESE HAMSTER OVARY, Strain/Indicator: AS52/6-THIOGUANINE, Metabolic Activation: NONE): active; positive

ONc1ccc(Cl)cc1
mutagenic call (Test System: AMES SALMONELLA TYPHIMURIUM, Strain/Indicator: TA98, Metabolic Activation: NONE, Method: STANDARD PLATE): inactive; negative
mutagenic call [1]: inactive; negative
mutagenic call [4]: inactive; negative
mutagenic call (Test System: E. COLI, Strain/Indicator: WP2 UVRA(P), Metabolic Activation: NONE, Method: STANDARD PLATE): inactive; negative
mutagenic call (Test System: E. COLI, Strain/Indicator: WP2 UVRA, Metabolic Activation: NONE, Method: FLUCTUATION TEST): inactive; negative
mutagenic call (Test System: E. COLI, Strain/Indicator: WP2 UVRA, Metabolic Activation: NONE, Method: STANDARD PLATE): inactive; negative
